pIC50: −log10 of the molar value. Structures can show the parent of a compound that is named as a salt.
Target: T1, KRAS-G12D and SOS1 (Homo sapiens, UniProt P01116, G12D)
T1 construct: purchased
Test: Inhibition of KRAS-G12D/SOS1 binding (Cisbio binding kit, 665/615 ratio), Effect Embodiment A
Details: read-out: GTP-KRAS-G12D:SOS1 IC50
Protocol: Similarly, the first dilution point of the compound to be tested was its storage solution, and the solution was 3-fold diluted, with 11+0 points of dilution. Echo was used to transfer 0.2 μL gradient diluted solution of the compounds into a 384-well plate, with 2 duplicated wells for each compound, and the final concentration of DMSO was 1%. The solution was centrifuged for 1 min at 1000 rpm/min.
IC50 of the compounds was fitted by Graphpad Prism 8 nonlinear regression equation: […]
The IC50 (half inhibitory concentration) of the compound was obtained by using the following nonlinear fitting formula: […]

T1 sequence (P01116 1-188 isoform P01116-2 G12D): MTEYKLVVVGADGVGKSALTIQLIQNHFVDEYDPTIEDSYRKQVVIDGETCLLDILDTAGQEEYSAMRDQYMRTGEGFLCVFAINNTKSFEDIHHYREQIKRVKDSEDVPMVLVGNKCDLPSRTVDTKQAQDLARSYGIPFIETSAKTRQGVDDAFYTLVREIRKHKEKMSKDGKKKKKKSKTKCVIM

Row | Structure (SMILES) | pIC50
1 | CN(C)C1CN(c2nc(N3CC4(CCNC4)C3)c3cc(Cl)c(-c4cc(O)cc5ccccc45)c(F)c3n2)C1 (single isomer, unassigned) [Compound 8b, (S or R)-4-(6-chloro-2-(3-(dimethylamino)azetidin-1-yl)-8-fluoro-4-(2,6-diazaspiro[3.4]octan-2-yl)quinazolin-7-yl)naphthalen-2-ol] | 4.15
2 | CN(C)C1CN(c2nc(NC3CC4CCCC(C3)N4)c3cc(Cl)c(-c4cc(O)cc5ccccc45)c(F)c3n2)C1 (single isomer, unassigned) [Compound 31, 4-((S or R)-4-(((1R,3R,5S)-9-azabicyclo[3.3.1]nonan-3-yl)amino)-6-chloro-2-(3-(dimethylamino)azetidin-1-yl)-8-fluoroquinazolin-7-yl)naphthalen-2-ol] | ~4.16
3 | CN1C[C@H]2C[C@H]2[C@H]1COc1nc(N2CC3CCC(C2)N3)c2cnc(-c3cc(O)cc4ccccc34)c(F)c2n1 [Compound 141, 4-(4-((1R,5S)-3,8-diazabicyclo[3.2.1]octan-3-yl)-8-fluoro-2-((1R,2S,5R)-3-methyl-3-azabicyclo[3.1.0]hexan-2-yl)methoxy)pyridin[4,3-d]pyrimidin-7-yl)naphthalen-2-ol dihydrochloride] | 7.06
4 | CN(C)C1CN(c2nc(N3CCNCC3)c3cc(Cl)c(-c4cc(O)cc5ccccc45)c(F)c3n2)C1 (single isomer, unassigned) [Comparative embodiment b, reference compound] | 4.08
5 | Oc1cc(-c2ncc3c(N4C[C@H]5CC[C@@H](C4)N5)nc(Oc4ccncc4)nc3c2F)c2ccccc2c1 [Compound 130, 4-(4-((1R,5S)-3,8-diazabicyclo[3.2.1]octan-3-yl)-8-fluoro-2-(pyridinyl-4-oxy)pyridyl[4,3-d]pyrimidin-7-yl)naphthalen-2-ol hydrochloride] | 6.07
6 | CCc1c(F)ccc2cc(O)cc(-c3c(F)cc4c(N5CC6CCC(C5)N6)nc(OCCCN5C6CCC5COC6)nc4c3F)c12 (single isomer, unassigned) [Compound 215b, 4-((7R or 7S)-2-(3-(3-oxa-8-azabicyclo[3.2.1]octan-8-yl)propoxy)-4-((1R,5S)-3,8-diazabicyclo[3.2.1]octan-3-yl)-6,8-difluoroquinazolin-7-yl)-5-ethyl-6-fluoronaphthalen-2-ol diformate] | 5.80
7 | Oc1cc(Cl)c(C2CC2)c(-c2c(Cl)cc3c(N4CC5CCC(C4)N5)nc(OCCCN4C5CCC4COC5)nc3c2F)c1 (single isomer, unassigned) [Compound 197b, 3-((7S or 7R)-2-(3-(3-oxa-8-azabicyclo[3.2.1]octan-8-yl)propoxy)-4-((1R,5S)-3,8-diazabicyclo[3.2.1]octan-3-yl)-6-chloro-8-fluoroquinazolin-7-yl)-5-chloro-4-cyclopropylphenol formate] | 5.57
8 | CCc1cccc2cc(O)cc(-c3c(F)cc4c(N5CC6CCC(C5)N6)nc(OCCCN5C[C@@H](C)O[C@@H](C)C5)nc4c3F)c12 (single isomer, unassigned) [Compound 283b, (R or S)-4-(4-((1R,5S)-3,8-diazacyclo[3.2.1]octan-3-yl)-2-(3-((2S,6R)-2,6-dimethylmorpholinyl)propoxy)-6,8-difluoroquinazolin-7-yl)-5-ethylnaphthalen-2-ol dihydrochloride] | 5.04
9 | CN1CCC[C@H]1COc1nc(N2CCN[C@@H](CC#N)C2)c2cc(Cl)c(-c3cc(O)cc4ccccc34)c(F)c2n1 (single isomer, unassigned) [Compound 153a, 2-((S)-4-((S or R)-6-chloro-8-fluoro-7-(3-hydroxynaphthalen-1-yl)-2-((S)-1-methylpyrrolidin-2-yl)methoxy)quinazolin-4-yl)piperazin-2-yl)acetonitrile] | 6.02
10 | CCc1c(F)ccc2cc(O)cc(-c3c(Cl)cc4c(N5CC6CCC(C5)N6)nc(OC[C@H](C)CN5C6CCC5COC6)nc4c3F)c12 (single isomer, unassigned) [Compound 233a, 4-((7S or 7R)-2-((2R)-3-(3-oxa-8-azabicyclo[3.2.1]octan-8-yl)-2-methylpropoxy)-4-((1R,5S)-3,8-diazabicyclo[3.2.1]octan-3-yl)-6-chloro-8-fluoroquinazolin-7-yl)-5-ethyl-6-fluoronaphthalen-2-ol formate] | 5.48
11 | CN(C)C1CN(c2nc(N3C[C@@H]4CC[C@H]3CN4)c3cc(Cl)c(-c4cc(O)cc5ccccc45)c(F)c3n2)C1 (single isomer, unassigned) [Compound 4b, (S or R)-4-(4-((1S,4S)-2,5-diazabicyclo [2.2.2]octan-2-yl)-6-chloro-2-(3-(dimethylamino)azetidin-1-yl)-8-fluoro-quinazolin-7-yl)naphthalen-2-ol] | 5.34
12 | CCCN(C)CC1(COc2nc(N3C[C@H]4CC[C@@H](C3)N4)c3cc(Cl)c(-c4cc(O)cc5ccccc45)c(F)c3n2)CC1 (single isomer, unassigned) [Compound 185, (R or S)-4-(4-((1R,5S)-3,8-diazabicyclo[3.2.1]octan-3-yl)-6-chloro-8-fluoro-2-((1-((methyl(propyl)amino)methyl)cyclopropyl)methoxy)quinazolin-7-yl)naphthalen-2-ol diformate] | 6.41
13 | CN(C)C1CN(c2nc(N3C[C@H]4C[C@@H]3CN4)c3cc(Cl)c(-c4cc(O)cc5ccccc45)c(F)c3n2)C1 (single isomer, unassigned) [Compound 3a, (R or S)-4-(4-((1R,4R)-2,5-diazabicyclo [2.2.1]heptan-2-yl)-6-chloro-2-(3-(dimethylamino)azetidin-1-yl)-8-fluoro-quinazolin-7-yl)naphthalen-2-ol] | 5.86
14 | CN(C)C1CN(c2nc(N3CC4CCC(C3)N4)c3cc(Cl)c(-c4cccc5ccccc45)c(F)c3n2)C1 (single isomer, unassigned) [Compound 42b, -((R or S)-4-((1R,5S)-3,8-diazabicyclo[3.2.1]octan-3-yl)-6-chloro-8-fluoro-7-(naphthalen-1-yl)quinazolin-2-yl)-N,N-dimethylazetidin-3-amine] | 5.19
15 | CN(C)C1CN(c2nc(N3C[C@H]4CC[C@@H]3CN4)c3cc(Cl)c(-c4cc(O)cc5ccccc45)c(F)c3n2)C1 (single isomer, unassigned) [Compound 1b, (S or R)-4-(4-((1R,4R)-2,5-diazabicyclo[2.2.2]octan-2-yl)-6-chloro-2-(3-(dimethylamino)azetidin-1-yl)-8-fluoroquinazolin-7-yl)naphthalen-2-ol] | 4.50
16 | CN(C)C1CN(c2nc(N3CC(N(C)C)C3)c3cc(Cl)c(-c4cc(O)cc5ccccc45)c(F)c3n2)C1 (single isomer, unassigned) [Compound 9a, (R or S)-4-(6-chloro-2,4-bis(3-(dimethylamino)azetidin-1-yl)-8-fluoro-7-yl)naphthalen-2-ol] | 4.09
17 | CN(C)C1CN(c2nc(N3CC4CCC(C3)N4)c3cc(Cl)c(-c4c(O)cccc4F)c(F)c3n2)C1 (single isomer, unassigned) [Compound 43b, 2-((R or S)-4-((1R,5S)-3,8-diazabicyclo[3.2.1]octan-3-yl)-6-chloro-2-(3-(dimethylamino)azetidin-1-yl)-8-fluoroquinazolin-7-yl)-3-fluorophenol] | 5.59
18 | Cn1ccnc1COc1nc(N2C[C@H]3CC[C@@H](C2)N3)c2cnc(-c3cc(O)cc4ccccc34)c(F)c2n1 [Compound 132, 4-(4-((1R,5S)-3,8-diazabicyclo[3.2.1]octan-3-yl)-8-fluoro-2-((1-methyl-1H-imidazol-2-yl)methoxy)pyridinyl[4,3-d]pyrimidin-7-yl)naphthalen-2-ol trifluoroacetate] | 6.12
19 | CN1CCC[C@H]1COc1nc(N2CC3CCC(C2)N3)c2cc(Cl)c(-c3c(F)c(O)cc4ccccc34)c(F)c2n1 (single isomer, unassigned) [Compound 195a, (R or S)-4-(4-((1R,5S)-3,8-diazabicyclo[3.2.1]octan-3-yl)-6-chloro-8-fluoro-2-((S)-1-methylpyrrolidin-2-yl)methoxy)quinazolin-7-yl)-3-fluoronaphthalen-2-ol diformate] | 5.06
20 | CN(CCN)c1nc(N2CC(N(C)C)C2)nc2c(F)c(-c3cc(O)cc4ccccc34)c(Cl)cc12 (single isomer, unassigned) [Compound 15b, (S or R)-4-(4((2-aminoethyl) (methyl)-amino)-6-chloro-2-(3-(dimethylamino)azetidin-1-yl)-8-fluoroquinazolin-7-yl)naphthalen-2-ol] | 4.28
21 | CC1(C)CN(CCCOc2nc(N3CC4CCC(C3)N4)c3cc(Cl)c(-c4cc(O)cc5ccccc45)c(F)c3n2)CC(C)(C)O1 (single isomer, unassigned) [Compound 222, 4-((S or R)-4-((1R,5S)-3,8-diazabicyclo[3.2.1]octan-3-yl)-6-chloro-8-fluoro-2-(3-(2,2,6,6-tetramethylmorpholinyl)propoxy)quinazolin-7-yl)naphthalen-2-ol formate] | 6.24
22 | CN1CCC[C@H]1COc1nc(N2CC3CCC(C2)N3)c2cc(Cl)c(-c3cc(O)cc4ccccc34)c(F)c2n1 (single isomer, unassigned) [Compound 39b, (R or S)-4-(4-((1R,5S)-3,8-diazabicyclo[3.2.1]octan-3-yl)-6-chloro-8-fluoro-2-((S)-1-methylpyrrolidin-2-yl)methoxy)quinazolin-7-yl)naphthalen-2-ol] | 4.75
23 | N=[S+]1([O-])CC2CCC(C1)N2CCCOc1nc(N2CC3CCC(C2)N3)c2cc(Cl)c(-c3cc(O)cc4ccccc34)c(F)c2n1 (single isomer, unassigned) [Compound 213a, (1R,3S or 3R,5S)-8-(3-((4-((1R,5S)-3,8-diazabicyclo[3.2.1]octan-3-yl)-6-chloro-8-fluoro-7-(3-hydroxynaphthalen-1-yl)quinazolin-2-yl)oxy)propyl)-3-imino-3λ^6-thia-8-azabicyclo[3.2.1]octane 3-oxide formate] | 6.29

From patent US20230365563A1, “QUINAZOLINE COMPOUND AND APPLICATION THEREOF” (SHANGHAI PHARMACEUTICALS HOLDING CO., LTD., priority 2020, published 2023)
